Test results from ChEMBL document CHEMBL4052783, “Effects of novel triple-stage antimalarial ionic liquids on lipid membrane models” (Bioorg Med Chem Lett, 2017).

How the values were obtained:
Lipid bilayer [1] = assay: Binding affinity to DPPG membrane assessed as change in enthalpy for main transition temperature at 1:10 compound/DPPG molar ratio by differential scanning calorimetric method (reference value: 8.7 KJ/mol)
Lipid bilayer [2] = assay: Binding affinity to DPPG membrane assessed as change in enthalpy for pre-transition temperature at 1:10 compound/DPPG molar ratio by differential scanning calorimetric method (reference value: 0.74 KJ/mol)
Lipid bilayer [3] = assay: Binding affinity to DPPG membrane assessed as pre-transition temperature at 1:10 compound/DPPG molar ratio by differential scanning calorimetric method (reference value: 34.5 degreeC)
Lipid bilayer [4] = assay: Binding affinity to DPPC membrane assessed as main transition temperature at 1:10 compound/DPPC molar ratio by differential scanning calorimetric method (reference value: 41.5 degreeC)
Lipid bilayer [5] = assay: Binding affinity to DPPG membrane assessed as main transition temperature at 1:10 compound/DPPG molar ratio by differential scanning calorimetric method (reference value: 40.3 degreeC)
Lipid bilayer [6] = assay: Binding affinity to DPPC membrane assessed as change in enthalpy for main transition temperature at 1:10 compound/DPPC molar ratio by differential scanning calorimetric method (reference value: 7.22 kJ/mol)

deltaH (Lipid bilayer [1])	deltaH (Lipid bilayer [2])	Tm (Lipid bilayer [3])	Tm (Lipid bilayer [4])	Tm (Lipid bilayer [5])	deltaH (Lipid bilayer [6])	Compound
2.46 kcal/mol	0.143 kcal/mol	32.7 °C	40.1 °C	39 °C	2.05 kcal/mol	COc1cc(NC(C)CCCNC(=O)/C=C/c2ccc(Cl)cc2)c2ncccc2c1 (stereo not given)
2.35 kcal/mol			40.2 °C	38.3 °C	2.22 kcal/mol	CC(C)c1ccc(/C=C/C(=O)O)cc1.COc1cc(NC(C)CCCN)c2ncccc2c1 (stereo not given)
2.22 kcal/mol	0.103 kcal/mol	32.4 °C	40.1 °C	39 °C	1.89 kcal/mol	COc1cc(NC(C)CCCNC(=O)/C=C/c2ccc(C(C)C)cc2)c2ncccc2c1 (stereo not given)
2.23 kcal/mol			40.7 °C	38.1 °C	2.29 kcal/mol	COc1cc(NC(C)CCCN)c2ncccc2c1.O=C(O)/C=C/c1ccc(Cl)cc1 (stereo not given)
